Holding throughout (experiment): Leishmanicidal activity, MTT viability assay, promastigotes
Holding throughout (format): cell-based
Holding throughout (conditions): 50 μg/mL; average ± standard deviation
(In general: Formazan colour is commonly taken as a measure of viable cells.)

In assay [1] the test system is stationary phase promastigotes of L. amazonensis. The procedure:
(§1) In a cell culture plate of 96 wells (Nunc, Nunclon®), 4×10^5 promastigote and amastigote-like forms of species Leishmania amazonensis, L. major and L. chagasi were incubated with 25 to 200 μg/mL of the aqueous extract of the fungus in RPMI-PR medium for a final volume of 100 μL, for 24 h at 25° C. Then it was added 50 uL of MTT reagent (Thiazoly Blue Tetrazolium Bromide 98%; in stock concentration of 5 mg/mL) and the plate was incubated for 4 hours at 25° C. The cells were analyzed on a microscope to verify the formation of formazan crystals. Shortly after it was added 60 μL of a SDS 10%/HCL 0.1 M solution to solubilize formazan crystals and the plate was incubated for 18 h. The absorbance readings were then performed using a spectrophotometer at a wavelength of 570 nanometers (nm) (see FIGS. 1 and 2; Table 1 and 2).
(§2) Through the absorbance readings collected in experiments, Tables 1 and 2 were generated to represent the percentage of leishmanicidal activity of aqueous extract against the three Leishmania species tested in two manners. The calculation of the percentage of death of the parasites was based in the formula below, using the absorbance readings: […]
(§3) The experiment was conducted by the cellular viability protocol by impregnating the MTT reagent and the concentration of 50 μg/mL of the aqueous extract of the fungus and the purified fractions were used. […]

The test system of assay [2] is stationary phase promastigotes of L. chagasi. How it is done:
as §1, §2, §3

In assay [3] the test system is stationary phase promastigotes of L. major. How it is done:
as §1, §2, §3

In the case of `C[C@@H]1[C@H](O)[C@@H](C)/C=C/C=C/C=C/C=C/C=C/C=C/C=C/[C@H](O[C@@H]2O[C@H](C)[C@@H](O)[C@H](N)[C@@H]2O)C[C@@H]2O[C@](O)(C[C@@H](O)C[C@@H](O)[C@H](O)CC[C@@H](O)C[C@@H](O)CC(=O)O[C@H]1C)C[C@H](O)[C@H]2C(=O)O` [Amphotericin B, amphotericin B], the “Average percentage of death of stationary phase promastigote forms, L. amazonensis” value in assay [1] amounted to 40.06 ± 1.17%. Also, the “Average percentage of death of stationary phase promastigote forms, L. chagasi” value in assay [2] stood at 35.12 ± 2.61%. In addition, in assay [3], the “Average percentage of death of stationary phase promastigote forms, L. major” value is given as 42.51 ± 2.00%.

Source of the values: patent publication US20130142819A1, “LEISHMANICIDAL FORMULATION AND ITS USE” (priority 2010, published 2013).
